Where two headings read alike, the source gives them in different places.
Experiments:
[1] = Example 2 rings; 1.0% BKC versus 0.9% saline
[2] = for sink conditions in 0.9% saline: rings of Examples 1 and 2, 250 ml, 37° C.; for In vitro release into 0.9% saline (as total testosterone): core loading 10% w/w testosterone
Experimental: The rings were tested in vitro at a constant temperature of 37° C. for their release characteristics in a sufficient volume (250 ml) of each of the following media: 0.9% (w/v) saline and 1.0% (w/v) aqueous benzalkonium chloride (BKC).
Thus, each ring was suspended by a thread in an individual enclosed flask containing the dissolution medium, maintained at a constant temperature of 37° C. The contents of the flask were gently agitated in order to prevent the occurrence of a hydrostatic layer on the surface of the ring. After 24 hours (±30 minutes), the ring was removed and suspended in a flask of fresh dissolution medium of identical volume.

[3] = In vitro release from Example 5 testosterone-17-propionate ring into 0.9% saline over 26 days; assay type: physicochemical; details: for In Vitro Release of Testosterone-17-propionate, Release Rate: Example 5 ring core length 90 mm
[4] = In vitro release from Example 3 rings into 0.9% saline over 30 days; assay type: physicochemical; details: 30 day monitoring period
[5] = human female, cited from earlier work
[6] = In vitro release from Example 6 pessary bullets into 0.9% saline; details: following an initial burst phase

CC(=O)O[C@H]1CC[C@H]2[C@@H]3CCC4=CC(=O)CC[C@]4(C)[C@H]3CC[C@]12C [testosterone-17-acetate]
in vitro release rates into BKC compared with saline [1]: considerably higher than those into saline
sink conditions in 0.9% saline [2]: ‘non-sink conditions’ exist in saline

CCC(=O)O[C@H]1CC[C@H]2[C@@H]3CCC4=CC(=O)CC[C@]4(C)[C@H]3CC[C@]12C [testosterone-17-propionate]
In Vitro Release of Testosterone-17-propionate, Release Rate ([3]; 0.9% saline, day 2): 171 µg/day
In Vitro Release of Testosterone-17-propionate, Release Rate ([3]; 0.9% saline, day 3): 328 µg/day
In Vitro Release of Testosterone-17-propionate, Release Rate ([3]; 0.9% saline, day 4): 337 µg/day
In Vitro Release of Testosterone-17-propionate, Release Rate ([3]; 0.9% saline, day 5): 465 µg/day
In Vitro Release of Testosterone-17-propionate, Release Rate ([3]; 0.9% saline, day 7): 457 µg/day
In Vitro Release of Testosterone-17-propionate, Release Rate ([3]; 0.9% saline, day 13): 527 µg/day
In Vitro Release of Testosterone-17-propionate, Release Rate ([3]; 0.9% saline, day 14): 587 µg/day
In Vitro Release of Testosterone-17-propionate, Release Rate ([3]; 0.9% saline, day 19): 585 µg/day
In Vitro Release of Testosterone-17-propionate, Release Rate ([3]; 0.9% saline, day 20): 663 µg/day
In Vitro Release of Testosterone-17-propionate, Release Rate ([3]; 0.9% saline, day 26): 637 µg/day
lag phase of in vitro release ([3]; Example 5 ring, freshly made, 0.9% saline): 13 days
in vitro release pattern ([3]; Example 5 ring, 0.9% saline, 13 day monitoring after the lag phase): substantially zero order pattern
amounts released compared with testosterone ([3]; intravaginal rings, high dose applications): amounts released are greater

C[C@]12CC[C@H]3[C@@H](CCC4=CC(=O)CC[C@@]43C)[C@@H]1CC[C@@H]2O [testosterone]
in vitro release pattern [4]: substantially zero order pattern
In vitro release into 0.9% saline (as total testosterone) ([2]; ring core length 30 mm, day 2): 270 µg/day
In vitro release into 0.9% saline (as total testosterone) ([2]; ring core length 30 mm, day 3): 232 µg/day
In vitro release into 0.9% saline (as total testosterone) ([2]; ring core length 30 mm, day 5): 237 µg/day
In vitro release into 0.9% saline (as total testosterone) ([2]; ring core length 30 mm, day 8): 228 µg/day
In vitro release into 0.9% saline (as total testosterone) ([2]; ring core length 30 mm, day 9): 229 µg/day
In vitro release into 0.9% saline (as total testosterone) ([2]; ring core length 30 mm, day 10): 226 µg/day
In vitro release into 0.9% saline (as total testosterone) ([2]; ring core length 30 mm, day 13): 238 µg/day
In vitro release into 0.9% saline (as total testosterone) ([2]; ring core length 30 mm, day 15): 227 µg/day
In vitro release into 0.9% saline (as total testosterone) ([2]; ring core length 30 mm, day 16): 216 µg/day
In vitro release into 0.9% saline (as total testosterone) ([2]; ring core length 30 mm, day 17): 224 µg/day
In vitro release into 0.9% saline (as total testosterone) ([2]; ring core length 60 mm, day 2): 471 µg/day
In vitro release into 0.9% saline (as total testosterone) ([2]; ring core length 60 mm, day 3): 401 µg/day
In vitro release into 0.9% saline (as total testosterone) ([2]; ring core length 60 mm, day 5): 419 µg/day
In vitro release into 0.9% saline (as total testosterone) ([2]; ring core length 60 mm, day 8): 400 µg/day
In vitro release into 0.9% saline (as total testosterone) ([2]; ring core length 60 mm, day 9): 407 µg/day
In vitro release into 0.9% saline (as total testosterone) ([2]; ring core length 60 mm, day 10): 406 µg/day
In vitro release into 0.9% saline (as total testosterone) ([2]; ring core length 60 mm, day 13): 430 µg/day
In vitro release into 0.9% saline (as total testosterone) ([2]; ring core length 60 mm, day 15): 408 µg/day
In vitro release into 0.9% saline (as total testosterone) ([2]; ring core length 60 mm, day 16): 392 µg/day
In vitro release into 0.9% saline (as total testosterone) ([2]; ring core length 60 mm, day 17): 388 µg/day
In vitro release into 0.9% saline (as total testosterone) ([2]; ring core length 90 mm, day 2): 696 µg/day
In vitro release into 0.9% saline (as total testosterone) ([2]; ring core length 90 mm, day 3): 572 µg/day
In vitro release into 0.9% saline (as total testosterone) ([2]; ring core length 90 mm, day 5): 588 µg/day
In vitro release into 0.9% saline (as total testosterone) ([2]; ring core length 90 mm, day 8): 592 µg/day
In vitro release into 0.9% saline (as total testosterone) ([2]; ring core length 90 mm, day 10): 581 µg/day
In vitro release into 0.9% saline (as total testosterone) ([2]; ring core length 90 mm, day 13): 623 µg/day
In vitro release into 0.9% saline (as total testosterone) ([2]; ring core length 90 mm, day 15): 595 µg/day
In vitro release into 0.9% saline (as total testosterone) ([2]; ring core length 90 mm, day 16): 584 µg/day
In vitro release into 0.9% saline (as total testosterone) ([2]; ring core length 90 mm, day 17): 612 µg/day
sink conditions in 0.9% saline [2]: ‘Sink conditions’ were evident
testosterone delivered per day ([5]; matrix (non-rate controlled) transdermal system, per day): about 1000 μg
mean circulating plasma testosterone levels ([5]; matrix transdermal system delivering about 1000 μg per day): 4 to 6 nM
in vitro release pattern [6]: substantially zero order release
